Article PMC11243149, “Assessing the Effects of Thiazole-Carboxamide Derivatives on the Biophysical Properties of AMPA Receptor Complexes as a Potential Neuroprotective Agent” (Molecules, 2024)
Like-named read-outs stand apart in the source and are kept apart here.

Target: T1, GluA1 (Homo sapiens, UniProt P42261)
T1 construct: expressed in transfected cells; host or cells: HEK293T
Assay: Whole-cell patch-clamp recordings of homomeric GluA1 AMPAR in transfected HEK293T cells
Type: cell-based
Conditions: for Amplitude (glutamate plus TC compound) / Amplitude, applying glutamate alone after TC compound / IC50 / A/AI / t deact / t des: GluA1; for Amplitude (glutamate plus TC compound): 10 mM glutamate + TC compound (12 µM optimal concentration), HEK293T, -60 mV, pH 7.4, 22 °C, mean ± SEM; for Amplitude (glutamate plus TC compound) / Amplitude, applying glutamate alone after TC compound: n = 10; for Amplitude, applying glutamate alone after TC compound: 10 mM glutamate alone after 20 s wash following the TC compound; for A/AI: ratio of current with glutamate alone (A) to inhibited current after TC compound (AI); for t deact: weighted tau of deactivation, 10 mM glutamate for 1 ms, glutamate alone 2.1±0.1; for t deact / t des: with TC compound; for t des: weighted tau of desensitization, 10 mM glutamate 500 ms, glutamate alone 2.5±0.1; for influence on τw des: GluA1 subunit
Method: The effect of five TC compounds on whole-cell currents of four AMPAR subunits (GluA1, GluA1/2, GluA2, and GluA2/3) was investigated using transfected HEK293T cells. Each compound was applied separately to each subunit, with experiments conducted on 8–10 cells per condition to ensure reproducibility. […] At a glutamate concentration of 10 mM and a 500 ms protocol, approximately 95% of AMPAR channels were open. The A/AI ratio was calculated to compare the results, where A represents normalized current readings and AI indicates the inhibited current following TC compound exposure. […] Following closely, TC-1 inhibited the tested subunits by 5-fold.
The IC50 values were examined using GraphPad Prism software 9.5.0.730 (x64) (Table S6), which confirmed these findings. The IC50 values of TC substances were calculated by standardizing the peak current amplitudes using data obtained from 8–10 cells. Following a 500 ms exposure to the compounds, the cells were rinsed with glutamate for 20 s. Next, a solution containing just glutamate at a concentration of 10 mM was administered, and the resulting immediate induced electrical current was measured and documented (Figure 3).
In addition, an evaluation was conducted on the deactivation rates (τw deact) of all the examined chemicals to investigate their impact on the kinetics of deactivation. The chemicals were assessed for their effect on the deactivation kinetics of AMPAR subunits by briefly administering 10 mM glutamate for 1 ms to begin currents. This experimental setup allowed for the observation of τw deact under controlled conditions. […] TC-5 induced an approximately 2-fold increase in τw deact across all four tested subunits. […] These findings highlight the differential impact of TC compounds on deactivation kinetics across AMPAR subunits, shedding light on their potential neuroprotective mechanisms.
The flip isoform was uniformly employed across all AMPAR subunits in this study. These subunits were subcloned into the pRK vector and expressed in Human Embryonic kidney cells sourced (Sigma, München, Germany). HEK293T cells were grown in Dulbecco Modified Eagle Medium (DMEM) (Sigma, München, Germany) containing 10% FBS (fetal bovine serum), 0.1 mg/mL streptomycin, and 1 mM sodium pyruvate (Biological Industries; Beit-Haemek, Israel). HEK293T cells were incubated at 37 °C and 5% CO2 was supplemented to the medium. It was subcultured twice a week until cells reached pass #20. The transfection reagent used was either jetPRIME (Polyplus: New York, NY, USA) or Lipofectamine 2000 (Invitrogen; San Diego, CA, USA). Cells were kept for 36 h. after transfection in 12-well plates. Then, they were replated on coverslips coated with Laminin (1 mg/mL; Sigma, Germany) for electrophysiology recordings. Cells were then seeded in Petri dishes in DMEM supplemented with 10% fetal calf serum and antibiotics and maintained in a humidified incubator at 37 °C and 5% CO2. Highly fluorescent cells were identified and selected for recording post-transfection.
HEK293T cells were recorded for 36–48 h, at a temperature of 22 °C, with a membrane potential of −60 mV. HEK293T cells were recorded 36–48 h after transfection using IPA (Integrated Patch Amplifier) via the […], at a temperature of 22 °C, with a membrane potential of −60 mV. SutterPatch Software v. 1.1.1 (Sutter Instruments, Novato, CA, USA) was used to digitize membrane currents for a short period. The sampling frequency was set to 10 kHz, and the low-pass filter was set to 2 kHz. Borosilicate glass was used to fabricate the patch electrodes with a resistance of 2–4 MΩ. The extracellular solution contained the following (values are in mM): 150 NaCl, 2.8 KCl, 0.5 MgCl2, 2 CaCl2, and 10 HEPES, adjusted to pH 7.4 with NaOH. The pipette solution contained the following (values are in mM): 110 CsF, 30 CsCl, 4 NaCl, 0.5 CaCl2, 10 […], and 10 HEPES, adjusted to pH 7.2 with CsOH. […]

[1] = Table S6, peak current amplitudes, 8-10 cells, GraphPad Prism fit, read-out: IC50
[2] = Table S6, read-out: Log IC50 (converted)

T1 sequence (P42261 19-906 isoform P42261-2 limits assumed, species assumed): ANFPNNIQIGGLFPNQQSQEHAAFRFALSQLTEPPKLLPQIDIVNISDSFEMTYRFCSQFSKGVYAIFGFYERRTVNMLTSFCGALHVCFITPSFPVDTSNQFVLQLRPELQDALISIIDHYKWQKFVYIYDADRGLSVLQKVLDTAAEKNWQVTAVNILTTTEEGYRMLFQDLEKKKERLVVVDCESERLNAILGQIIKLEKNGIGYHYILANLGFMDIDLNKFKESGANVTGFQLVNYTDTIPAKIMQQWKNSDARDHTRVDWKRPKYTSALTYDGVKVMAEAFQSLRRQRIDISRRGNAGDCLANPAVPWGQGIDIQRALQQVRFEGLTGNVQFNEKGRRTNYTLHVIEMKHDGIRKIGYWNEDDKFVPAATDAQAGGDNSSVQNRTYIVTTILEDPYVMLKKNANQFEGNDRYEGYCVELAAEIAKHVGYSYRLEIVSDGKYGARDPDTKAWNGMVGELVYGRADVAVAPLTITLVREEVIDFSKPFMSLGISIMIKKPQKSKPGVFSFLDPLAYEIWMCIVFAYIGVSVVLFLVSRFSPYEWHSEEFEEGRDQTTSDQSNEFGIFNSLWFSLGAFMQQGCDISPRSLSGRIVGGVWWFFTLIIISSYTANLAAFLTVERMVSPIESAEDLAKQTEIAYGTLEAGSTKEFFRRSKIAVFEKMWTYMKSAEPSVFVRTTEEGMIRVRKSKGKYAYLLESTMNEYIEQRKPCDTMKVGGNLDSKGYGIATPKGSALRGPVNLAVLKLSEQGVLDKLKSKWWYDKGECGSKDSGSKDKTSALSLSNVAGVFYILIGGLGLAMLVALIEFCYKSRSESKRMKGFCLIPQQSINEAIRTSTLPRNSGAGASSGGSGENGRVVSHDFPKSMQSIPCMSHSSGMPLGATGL

Row | Amplitude (glutamate plus TC compound) [pA] | Amplitude, applying glutamate alone after TC compound [pA] | IC50 [1] [µM] | IC50 [2] [µM] | A/AI | t deact [ms] | influence on τw des | SMILES | t des [ms]
1 | 331±50 | 816±114 | 5.88 | 5.89 | 2.53±0.02 | 2.9 ± 0.1 | negligible | COc1ccc(-c2nc(C(=O)Nc3ccc(C(C)(C)C)cc3)cs2)cc1 [TC-4] | 2.1 ± 0.1
2 | 287±38 | 799±95 | 5.73 | 5.75 | 2.97±0.03 | 3.0 ± 0.2 | negligible | COc1ccc(-c2nc(C(=O)Nc3ccccc3)cs2)cc1 [TC-3] | 2.0 ± 0.1
3 | 177±20 | 848±82 | 3.42 | 3.39 | 4.91±0.1 | 5.3 ± 0.4 |  | COc1ccc(-c2nc(C(=O)Nc3ccc(OC)c(OC)c3)cs2)cc1 [TC-1] | 1.3 ± 0.1
